Literature values as cited in patent publication US9125411B2, “UV absorbers for reducing the E/Z isomerization of pesticides” (BASF SE, priority 2010, dated 2015).

**Q.** What does the source list for metaflumizone?
**A.** pesticidal activity of the E isomer relative to the Z isomer (E isomer higher than Z isomer): up to 10 fold; change of activity by irradiation by light (Takagi et al., Veterinary Parasitology, 2007): loses activity
